Experimental data as given in EP4707280A1, “1,4-CINEOLE DERIVATIVE AND INTERMEDIATE THEREOF, HERBICIDE CONTAINING SAID DERIVATIVE AS ACTIVE INGREDIENT, METHOD FOR USING HERBICIDE, AND METHOD FOR PREPARING AGROCHEMICAL COMPOSITION” (HOKKO CHEMICAL INDUSTRY CO., LTD., priority 2023, dated 2024).

Columns and labels:
Type in all cases: in vivo
[1] = system: Echinochloa crus-galli var. formosensis; experiment: Test Example 1: herbicidal effect test by soil application in paddy rice; conditions: Echinochloa crus-galli, soil, 336 h; 120 g active ingredient per 10 ares; applied immediately after sowing, flooded pots; 14 days after application; read-out: weed inhibition rate
Summary of the method: (§1)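 Paddy soil in Wagner pots (1/10,000 acre) was fertilized (N:P:K 16:16:16) and puddled, then weed seeds were sown 0–1 cm deep, 30 each. Pots were flooded to ~3 cm and kept in a glass greenhouse. Emulsifiable concentrate diluted in water was dropped on immediately after sowing at 120 g a.i. per 10 ares.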

[2] = system: Scirpus juncoides; experiment: as above; conditions: Schoenoplectiella juncoides, soil, 336 h; 120 g active ingredient per 10 ares; applied immediately after sowing, flooded pots; 14 days after application; read-out: weed inhibition rate
Summary of the method: as §1

[3] = system: Monochoria vaginalis; experiment: as above; conditions: Pontederia vaginalis, soil, 336 h; 120 g active ingredient per 10 ares; applied immediately after sowing, flooded pots; 14 days after application; read-out: weed inhibition rate
Summary of the method: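 Pre-emergence test in puddled, flooded paddy soil (about 3 cm water), 30 seeds per weed sown at 0–1 cm depth in a glass greenhouse. Emulsifiable concentrate diluted in water and dropped onto the pots straight after sowing at 120 g a.i. per 10 ares. Weed inhibition (%) scored at 14 days, in duplicate.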

[4] = system: Amaranthus viridis; experiment: Test Example 3: herbicidal effect test by soil application in upland field; conditions: Amaranthus viridis, 120 g per 10 ares, sprayed one day after sowing, 14 days after application, read-out: weed inhibition rate
Summary of the method: (§2)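 Pre-emergence test: seeds mixed into top 1 cm of alluvial loam upland soil in pots; emulsifiable concentrate diluted in water sprayed on soil one day after sowing at 100 L/10 a, 120 g a.i./10 a. Weed inhibition rate (%) scored at 14 days, in duplicate.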

[5] = system: Chenopodium album; experiment: as above; conditions: 120 g per 10 ares, sprayed one day after sowing, 14 days after application, read-out: weed inhibition rate
Summary of the method: as §2

[6] = system: Echinochloa crus-galli; experiment: Test Example 4: herbicidal effect test by stem and leaf treatment in upland field; conditions: Echinochloa crus-galli; 120 g per 10 ares; sprayed seven days after sowing, upland soil; 14 days after application; read-out: weed inhibition rate
[7] = system: Echinochloa crus-galli var. formosensis; experiment: Test Example 5: herbicidal effect test by soil application in paddy rice (low dose); conditions: Echinochloa crus-galli, soil, 336 h; 7.5 g per 10 ares; applied immediately after sowing, flooded pots; 14 days after application; read-out: weed inhibition rate
Summary of the method: (§3)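 Pots of puddled, fertilized paddy soil receive 30 seeds per species at 0–1 cm depth and are flooded to about 3 cm. The diluted emulsifiable concentrate is then dropped onto the water, delivering 7.5 g active ingredient per 10 ares. Greenhouse grown; herbicidal effect scored 14 days later, two replicates.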

[8] = system: Scirpus juncoides; experiment: as above; conditions: Schoenoplectiella juncoides, 336 h, 7.5 g per 10 ares, applied immediately after sowing, flooded pots, 14 days after application, read-out: weed inhibition rate
Summary of the method: as §3

[9] = system: Scirpus juncoides; experiment: Test Example 6: herbicidal effect test by application during growth period of paddy rice (low dose); conditions: Schoenoplectiella juncoides; 7.5 g per 10 ares; applied seven days after sowing, flooded pots; 14 days after application; read-out: weed inhibition rate
Summary of the method: (§4)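 Low-dose water application, 7.5 g a.i. per 10 ares, given by dropper into flooded pots (about 3 cm depth) 7 days after sowing of 30 weed seeds each at 0–1 cm. Evaluation of inhibition (%) took place 14 days later, duplicate per rate.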

[10] = system: Monochoria vaginalis; experiment: Test Example 5: herbicidal effect test by soil application in paddy rice (low dose); conditions: Pontederia vaginalis, 336 h, 7.5 g per 10 ares, applied immediately after sowing, flooded pots, 14 days after application, read-out: weed inhibition rate
Summary of the method: as §3

[11] = system: Monochoria vaginalis; experiment: Test Example 6: herbicidal effect test by application during growth period of paddy rice (low dose); conditions: Pontederia vaginalis; 7.5 g per 10 ares; applied seven days after sowing, flooded pots; 14 days after application; read-out: weed inhibition rate
Summary of the method: as §4

CC(C)[C@]12C[C@@H](OCc3c(F)cccc3F)[C@](C)(C[C@@H]1O)O2 [1-41, (1R,2S,4S,5R)-5-((2,6-difluorobenzyl)oxy)-1-isopropyl-4-methyl-7-oxabicyclo[2,2,1]heptan-2-ol]
≥ 80%: pest or weed control at 1200 g/ha [1] | pest or weed control at 1200 g/ha [2] | pest or weed control at 1200 g/ha [3] | inhibition at 1200 g/ha [4] | inhibition at 1200 g/ha [5] | inhibition at 1200 g/ha [6] | inhibition at 75 g/ha [7] | inhibition at 75 g/ha [8] | inhibition at 75 g/ha [9]

Cc1ccccc1CO[C@@H]1C[C@]2(C(C)C)O[C@@]1(C)CC2=O [2-3, (1R,4S,5R)-1-isopropyl-4-methyl-5-((2-methylbenzyl)oxy)-7-oxabicyclo[2.2.1]heptan-2-one]
≥ 80%: pest or weed control at 1200 g/ha [1] | pest or weed control at 1200 g/ha [2] | pest or weed control at 1200 g/ha [3] | inhibition at 1200 g/ha [5] | inhibition at 1200 g/ha [6] | inhibition at 75 g/ha [7] | inhibition at 75 g/ha [10] | inhibition at 75 g/ha [8] | inhibition at 75 g/ha [11] | inhibition at 75 g/ha [9]

CC(C)[C@]12C[C@@H](OCc3ccccc3F)[C@](C)(C[C@@H]1Br)O2 [1-19, (1S,2R,4R,5S)-5-bromo-2-[(2-fluorophenyl)methoxy]-1-methyl-4-isopropyl-7-oxabicyclo[2.2.1]heptane]
≥ 80%: pest or weed control at 1200 g/ha [1] | pest or weed control at 1200 g/ha [2] | pest or weed control at 1200 g/ha [3] | inhibition at 1200 g/ha [5] | inhibition at 1200 g/ha [6] | inhibition at 75 g/ha [7] | inhibition at 75 g/ha [8]

CC(C)[C@]12C[C@@H](OCc3ccccc3Cl)[C@](C)(CC1=O)O2 [2-11, (1R,4S,5R)-5-((2-chlorobenzyl)oxy)-1-isopropyl-4-methyl-7-oxabicyclo[2.2.1]heptan-2-one]
≥ 80%: pest or weed control at 1200 g/ha [1] | pest or weed control at 1200 g/ha [2] | inhibition at 1200 g/ha [4] | inhibition at 1200 g/ha [5] | inhibition at 1200 g/ha [6] | inhibition at 75 g/ha [7] | inhibition at 75 g/ha [8]

Cc1ccccc1CO[C@@H]1C[C@]2(C(C)C)O[C@@]1(C)CC2C (stereo partly drawn) [1-83, (1S,2R,4R)-4-isopropyl-1,5-dimethyl-2-((2-methylbenzyl)oxy)-7-oxabicyclo[2.2.1]heptane]
≥ 80%: pest or weed control at 1200 g/ha [1] | pest or weed control at 1200 g/ha [2] | pest or weed control at 1200 g/ha [3] | inhibition at 1200 g/ha [5] | inhibition at 1200 g/ha [6] | inhibition at 75 g/ha [7] | inhibition at 75 g/ha [10] | inhibition at 75 g/ha [8] | inhibition at 75 g/ha [11] | inhibition at 75 g/ha [9]

CC(C)[C@]12C[C@@H](OCc3c(F)cccc3F)[C@](C)(C[C@@H]1F)O2 [1-7, (1S,2R,4R,5S)-2-((2,6-difluorobenzyl)oxy)-5-fluoro-4-isopropyl-1-methyl-7-oxabicyclo[2.2.1]heptane]
≥ 80%: pest or weed control at 1200 g/ha [1] | pest or weed control at 1200 g/ha [2] | pest or weed control at 1200 g/ha [3] | inhibition at 1200 g/ha [4] | inhibition at 1200 g/ha [5] | inhibition at 1200 g/ha [6] | inhibition at 75 g/ha [7] | inhibition at 75 g/ha [8] | inhibition at 75 g/ha [11]

CC(C)[C@]12C[C@@H](OCc3c(F)cccc3F)[C@](C)(CC1=O)O2 [2-20, (1R,4S,5R)-5-((2,6-difluorobenzyl)oxy)-1-isopropyl-4-methyl-7-oxabicyclo[2.2.1]heptan-2-one]
≥ 80%: pest or weed control at 1200 g/ha [1] | pest or weed control at 1200 g/ha [2] | pest or weed control at 1200 g/ha [3] | inhibition at 1200 g/ha [4] | inhibition at 1200 g/ha [5] | inhibition at 1200 g/ha [6] | inhibition at 75 g/ha [7] | inhibition at 75 g/ha [10] | inhibition at 75 g/ha [8]

Cc1ccccc1CO[C@@H]1C[C@]2(C(C)C)O[C@@]1(C)C[C@@H]2F [1-2, (1R,2S,4S,5R)-2-fluoro-1-isopropyl-4-methyl-5-((2-methylbenzyl)oxy)-7-oxabicyclo[2.2.1]heptane]
≥ 80%: pest or weed control at 1200 g/ha [1] | pest or weed control at 1200 g/ha [2] | pest or weed control at 1200 g/ha [3] | inhibition at 1200 g/ha [5] | inhibition at 1200 g/ha [6] | inhibition at 75 g/ha [7] | inhibition at 75 g/ha [10] | inhibition at 75 g/ha [11] | inhibition at 75 g/ha [9]

CC(C)[C@]12C[C@@H](OCc3c(F)cccc3F)[C@](C)(CC1C)O2 (stereo partly drawn) [1-111, (1S,2R,4R)-2-((2,6-difluorobenzyl)oxy)-4-isopropyl-1,5-dimethyl-7-oxabicyclo[2.2.1]heptane]
≥ 80%: pest or weed control at 1200 g/ha [1] | pest or weed control at 1200 g/ha [2] | pest or weed control at 1200 g/ha [3] | inhibition at 1200 g/ha [5] | inhibition at 1200 g/ha [6] | inhibition at 75 g/ha [7]

CC(C)[C@]12C[C@@H](OCc3ccccc3F)[C@](C)(C[C@@H]1OCc1ccccc1F)O2 [1-603, (1S,2R,4R,5S)-2,5-bis[(2-fluorophenyl)methoxy]-1-methyl-4-isopropyl-7-oxabicyclo[2.2.1]heptane]
≥ 80%: pest or weed control at 1200 g/ha [1] | pest or weed control at 1200 g/ha [2] | pest or weed control at 1200 g/ha [3] | inhibition at 1200 g/ha [5] | inhibition at 1200 g/ha [6] | inhibition at 75 g/ha [7] | inhibition at 75 g/ha [10] | inhibition at 75 g/ha [11]

CC(C)[C@]12C[C@@H](OCc3ccccc3F)[C@](C)(C[C@@H]1F)O2 [1-5, (1R,2S,4S,5R)-2-fluoro-5-((2-fluorobenzyl)oxy)-1-isopropyl-4-methyl-7-oxabicyclo[2.2.1]heptane]
≥ 80%: pest or weed control at 1200 g/ha [1] | pest or weed control at 1200 g/ha [2] | pest or weed control at 1200 g/ha [3] | inhibition at 1200 g/ha [5] | inhibition at 1200 g/ha [6] | inhibition at 75 g/ha [7] | inhibition at 75 g/ha [10] | inhibition at 75 g/ha [8] | inhibition at 75 g/ha [11] | inhibition at 75 g/ha [9]

CC(C)[C@]12C[C@@H](OCc3ccc(F)cc3)[C@](C)(CC1=O)O2 [2-349, (1R,4S,5R)-5-((4-fluorobenzyl)oxy)-1-isopropyl-4-methyl-7-oxabicyclo[2.2.1]heptan-2-one]
≥ 80%: pest or weed control at 1200 g/ha [1] | pest or weed control at 1200 g/ha [2] | pest or weed control at 1200 g/ha [3] | inhibition at 1200 g/ha [4] | inhibition at 1200 g/ha [5] | inhibition at 1200 g/ha [6] | inhibition at 75 g/ha [7]
